Test results reported in patent US20250195502A1, “APPLICATION OF TETRACYCLIC COMPOUND IN TREATMENT OF TUMORS” (SHANGHAI SHIJIANG BIOTECHNOLOGY CO., LTD, priority 2022, published 2025).
Read-outs that look alike come from different tables or passages of the source.

Experiments:
Type in all cases: cell-based
[1] = test system: NCI-H82 (human small cell lung cancer cell); test: Cell viability assay (Promega CellTiter-Glo), inhibitory effect on NCI-H82; settings: 72 h, 3 days of culture
Experimental: (§1) The inhibitory effect of the compounds prepared in the Examples of the present invention on various tumor cell lines was detected using cell viability assay reagent.
(§2) Cell viability was detected using the Promega CellTiter-Glo kit, cell viability was determined by directly measuring intracellular ATP content. In the experiment, the ICso value of the compounds prepared in the Examples of the present invention on various tumor cell lines was detected.
(§3) Each tumor cell was cultured in relevant medium. After cell passage, the gradient diluted compounds prepared in the Examples of the present invention was added. After 3 days of culture, the relevant IC50 (50% inhibiting concentration) was measured. The name, source and culture conditions of each tumor cell line were as follows:
Cell line NCI-H82 (ATCC, No. HTB-175) was cultured in 10% fetal bovine serum-containing RPMI1640 medium (+P/S).

[2] = test system: SW48 (human colon adenocarcinoma cell); test: Cell viability assay (Promega CellTiter-Glo), inhibitory effect on SW48; settings: 72 h, 3 days of culture
Experimental: as §1, §2, §3
Cell line SW48 (ATCC, No. CCL-231) was cultured in 10% fetal bovine serum-containing Leibovitz's L-15 medium (+P/S).

[3] = test system: G-401 (human renal carcinoma Wilms cell); test: Cell viability assay (Promega CellTiter-Glo), inhibitory effect on G-401; settings: 72 h, 3 days of culture
Experimental: as §1, §2, §3
Cell line G-401 (ATCC, No. CRL-1441) was cultured in 10% fetal bovine serum-containing McCoy's 5a medium (+P/S).

[4] = test system: MDA-MB-453 (breast cancer cell); test: Cell viability assay (Promega CellTiter-Glo), inhibitory effect on MDA-MB-453; settings: Homo sapiens, 72 h, 3 days of culture
Experimental: as §1, §2, §3
Cell line MDA-MB-453 (ATCC, No. HTB-131) was cultured in 10% fetal bovine serum-containing Leibovitz's L-15 medium (+P/S).

[5] = test system: CFPAC-1 (human pancreatic cancer cell); test: Cell viability assay (Promega CellTiter-Glo), inhibitory effect on CFPAC-1; settings: 72 h, 3 days of culture
Experimental: as §1, §2, §3
Cell line CFPAC-1 (ATCC, No. CRL-1918) was cultured in 10% fetal bovine serum-containing IMDM medium (+P/S).

[6] = test system: 786-O (clear cell renal cell adenocarcinoma cell); test: Cell viability assay (Promega CellTiter-Glo), inhibitory effect on 786-O; settings: Homo sapiens, 786-0, 72 h, 3 days of culture
Experimental: as §1, §2, §3
Cell line 786-0 (ATCC, No. CRL-1932) was cultured in 10% fetal bovine serum-containing RPMI1640 medium (+P/S).

[7] = test system: SF126 (human glioblastoma multiforme cell); test: Cell viability assay (Promega CellTiter-Glo), inhibitory effect on SF126
Experimental: as §1, §2, §3
Cell line SF126 (JCRB, No. IFO50286) was cultured in 10% fetal bovine serum-containing EMEM medium (+P/S).
(§4) The inhibitory effect of the compounds prepared in the Examples of the present invention on various brain tumor cell lines was detected using cell viability assay reagent.
(§5) Cell viability was detected using the Promega CellTiter-Glo kit, cell viability was determined by directly measuring intracellular ATP content. In the experiment, the IC50 value of the compounds prepared in the Examples of the present invention on various brain tumor cell lines was detected.

[8] = test system: GB-1 (human brain glioblastoma cell); test: Cell viability assay (Promega CellTiter-Glo), inhibitory effect on GB-1; settings: 72 h, 3 days of culture
Experimental: as §1, §2, §3
Cell line GB-1 (JCRB, No. IFO50489) was cultured in 10% fetal bovine serum-containing DMEM medium (+P/S).
as §4, §5

[9] = test system: Kelly (brain neuroblastoma cell); test: Cell viability assay (Promega CellTiter-Glo), inhibitory effect on Kelly; settings: Homo sapiens, 72 h, 3 days of culture, read-out: inhibitory effect on brain cell line Kelly (IC50)
Experimental: as §4, §5, §3
Cell line Kelly (ECACC, No. 92110411) was cultured in 10% fetal bovine serum and 2 mM glutamine-containing RPMI1640 medium.

[10] = test system: NB-1 (brain neuroblastoma cell); test: Cell viability assay (Promega CellTiter-Glo), inhibitory effect on NB-1; settings: Homo sapiens, 72 h, 3 days of culture, read-out: inhibitory effect on brain cell line NB-1 (IC50)
Experimental: as §4, §5, §3
Cell line NB-1 (ATCC, No. HTB-131) was cultured in 10% fetal bovine serum-containing Leibovitz's L-15 medium (+P/S).

[11] = test system: D341 Med (cerebellar medulloblastoma cell); test: Cell viability assay (Promega CellTiter-Glo), inhibitory effect on D341 Med; settings: Homo sapiens, 72 h, 3 days of culture, read-out: inhibitory effect on brain cell line D341 Med (IC50)
Experimental: as §4, §5, §3
Cell line D341 Med (ATCC, No. HTB-187) was cultured in 20% fetal bovine serum-containing EMEM medium (+P/S).

[12] = test system: Con-NCI-H82 cell (NCI-H82 transfected with empty virus vector); test: Cell viability assay (Promega CellTiter-Glo), inhibitory effect on Con-NCI-H82 cell; settings: Homo sapiens
Experimental: (§6) The role of expression level of NNMT gene and DNMT1 in the sensitivity of NCI-H82 cell to the compounds prepared in the Examples of the present invention was determined
(§7) The expression of NNMT protein in NCI-H82 cell was overexpressed by inserting the NNMT gene into NCI-H82 cell using a viral vector, and the NNMT protein-overexpressing NCI-H82 cell (ov-NNMT NCI-H82 cell) was obtained. The expression of DNMT1 in NCI-H82 cell was knocked down transfecting (the by shRNA nucleotide sequence of shRNA was […] TTTTTG (SEQ ID No: 2)) using a viral vector, and the NCI-H82 cell with low expression of DNMT1 protein (sh-DNMT1 NCI-H82 cell) was obtained. The control NCI-H82 cell (Con-NCI-H82 cell) was obtained by transfecting NCI-H82 cell with empty virus vector without carrying NNMT gene and shRNA. The expressing content of NNMT protein and DNMT1 protein in the Con-NCI-H82 cell, the expressing content of NNMT protein in the ov-NNMT NCI-H82 cell, and the expressing content of DNMT1 protein in the sh-DNMT1 NCI-H82 cell were detected using Western Blot assay (as shown in FIG. 15 and FIG. 16), it could be seen from FIG. 15 and FIG. 16 that the NNMT protein was overexpressed in the ov-NNMT NCI-H82 cell and the expression of DNMT1 protein was knocked down (i.e, low expression) in the sh-DNMT1 NCI-H82 cell compared with the expression level of NNMT protein and DNMT protein in the Con-NCI-H82 cell.

[13] = test system: ov-NNMT NCI-H82 cell (NNMT protein-overexpressing NCI-H82); test: Cell viability assay (Promega CellTiter-Glo), inhibitory effect on ov-NNMT NCI-H82 cell; settings: Homo sapiens
Experimental: as §6, §7

[14] = test system: sh-DNMT1 NCI-H82 cell (DNMT1 knocked down NCI-H82); test: Cell viability assay (Promega CellTiter-Glo), inhibitory effect on sh-DNMT1 NCI-H82 cell; settings: Homo sapiens, NCI-H82 with DNMT1 knocked down by shRNA
Experimental: as §6, §7

[15] = 72 h, SF-126, 3 days of culture, Table 3, read-out: inhibitory effect on SF-126 (IC50)
[16] = Table 3, read-out: inhibitory effect on GB-1 (IC50)
[17] = NCI-H82 transfected with empty virus vector (control), CellTiter-Glo, read-out: inhibitory effect on Con-NCI-H82 (IC50)
[18] = NCI-H82, read-out: inhibitory effect on Con-NCI-H82 (IC50)

SMILES	IC50 [12, 17] [nM]	IC50 [13] [nM]	IC50 [14] [nM]	further results
CCc1c2c(OC)c(OC)ccc2cc2[n+]1CCc1cc3c(cc1-2)OCO3 [compound AB31706]	1480	3150	4640	IC50 [1]: 1480 nM; IC50 [2]: 1240 nM; IC50 [3]: 1120 nM; IC50 [4]: 620 nM; IC50 [5]: 21900 nM; IC50 [6]: 16600 nM; IC50 [7, 15]: 6490 nM; IC50 ([7]; SF-126, 72 h, SF126, 3 days of culture, Table 4, read-out: inhibitory effect on brain cell line SF126 (IC50)): 6490 nM; IC50 [8, 16]: 12900 nM; IC50 ([8]; Table 4, read-out: inhibitory effect on brain cell line GB-1 (IC50)): 12900 nM; IC50 [9]: 1510 nM; IC50 [10]: 300 nM; IC50 [11]: 1180 nM
CCCCCCCCCCOc1c(OC)ccc2cc3[n+](cc12)CCc1cc2c(cc1-3)OCO2 [compound AB31716]	70	380	350	–
CCCCCCCCCCCCOc1c(OC)ccc2cc3[n+](cc12)CCc1cc2c(cc1-3)OCO2 [compound AB31717]	110	250	360	–
CCCCC(=O)Oc1c(OC)ccc2cc3[n+](cc12)CCc1cc2c(cc1-3)OCO2 [compound AB31723]	3940	8280	8080	IC50 [1]: 3940 nM; IC50 [2]: 2560 nM; IC50 [3]: 5310 nM; IC50 [4]: 3450 nM; IC50 [5]: 22600 nM; IC50 [6]: 21500 nM; IC50 [7, 15]: 19300 nM; IC50 [8, 16]: > 50000 nM
CCc1c2[n+](cc3c(OC)c(OC)ccc13)CCc1cc3c(cc1-2)OCO3 [compound AB31755]	2360	4820	7680	–
CCCc1c2[n+](cc3c(OC)c(OC)ccc13)CCc1cc3c(cc1-2)OCO3 [compound AB31756]	1010	2380	4360	–
CCCCCCCCc1c2[n+](cc3c(OC)c(OC)ccc13)CCc1cc3c(cc1-2)OCO3 [compound AB31761]	270	740	980	–
CCCCCCCCCCc1c2[n+](cc3c(OC)c(OC)ccc13)CCc1cc3c(cc1-2)OCO3 [compound AB31762]	130	320	490	–
CCCCCCCCCCCCc1c2[n+](cc3c(OC)c(OC)ccc13)CCc1cc3c(cc1-2)OCO3 [compound AB31763]	80	310	420	–
CCCCCCCCCCCC(=O)Oc1c(OC)ccc2cc3[n+](cc12)CCc1cc2c(cc1-3)OCO2 [compound AB31766]	2470	4950	4840	IC50 [1]: 2470 nM; IC50 [2]: 1210 nM; IC50 [3]: 2890 nM; IC50 [4]: 1250 nM; IC50 [5]: 15200 nM; IC50 [6]: 13000 nM; IC50 [7, 15]: 12900 nM; IC50 [8, 16]: 9120 nM
CCCCCCCCCCCCc1c2[n+](cc3c(OCCCCCCCCCC)c(OC)ccc13)CCc1cc3c(cc1-2)OCO3 [compound AB31795]	240	680	880	–
CCCCCCCCCCCCc1c2[n+](cc3c(OCCCCCCCC)c(OC)ccc13)CCc1cc3c(cc1-2)OCO3 [compound AB31796]	270	640	760	–
CCCCCCCCCCCCc1c2[n+](cc3c(OCCCCCC)c(OC)ccc13)CCc1cc3c(cc1-2)OCO3 [compound AB31797]	120	540	480	–
CCCCCCCCCCCCCCc1c2[n+](cc3c(OC)c(OC)ccc13)CCc1cc3c(cc1-2)OCO3 [compound AB31800]	220	650	580	–
COc1ccc2cc3[n+](cc2c1OC)CCc1cc2c(cc1-3)OCCO2 [compound AB31811]	3120	7340	12400	–
COc1ccc2cc3[n+](cc2c1OCCCCl)CCc1cc2c(cc1-3)OCO2 [compound AB35483]	–	2880	5320	IC50 [12, 18]: 1260 nM
CCCOc1c(OC)ccc2cc3[n+](cc12)CCc1cc2c(cc1-3)OCO2 [compound AB35511]	610	1380	2560	–
COc1ccc2cc3[n+](cc2c1OCc1ccc(-c2ccccc2)cc1)CCc1cc2c(cc1-3)OCO2 [compound AB35532]	340	960	2560	–
COc1ccc2cc3[n+](cc2c1OCCBr)CCc1cc2c(cc1-3)OCO2 [compound AB35595]	680	1540	3150	–
COc1ccc2cc3[n+](cc2c1OCCCl)CCc1cc2c(cc1-3)OCO2 [compound AB36404]	–	2540	4860	IC50 [12, 18]: 1060 nM
CCOc1c(OC)ccc2cc3[n+](cc12)CCc1cc2c(cc1-3)OCO2 [compound AB36412]	1170	2580	4690	–
COc1c(OCCCCl)ccc2cc3[n+](cc12)CCc1cc2c(cc1-3)OCO2 [compound AB36425]	–	1920	3880	IC50 [12, 18]: 850 nM
COc1ccc2cc3[n+](cc2c1OCCF)CCc1cc2c(cc1-3)OCO2 [compound AB36484]	1840	3850	8320	–
[2H]C([2H])([2H])Oc1c(OC)ccc2cc3[n+](c(C4CCCC4)c12)CCc1cc2c(cc1-3)OCO2.[Br-] [compound AB36508]	560	1340	2820	–
